Laboratory results taken from PubChem BioAssay (NCI).
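These data come from cells grown in 96-well plates and exposed to compound for 48 hours at five concentrations. GI50 = concentration required for 50% inhibition of growth. TGI is the concentration that stops growth completely.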

Experiments:
Test in all cases: NCI anticancer screen, dose series, 48 h
[1] = test system: A549 NSCLC
[2] = test system: UACC-257 melanoma
[3] = test system: NCI-H226 lung
[4] = test system: MOLT-4 leukemia
[5] = test system: RPMI-8226 leukemia
[6] = test system: SF-268 CNS
[7] = test system: K-562 leukemia
[8] = test system: SNB-19 CNS
[9] = test system: U251 CNS
[10] = test system: SW-620 colon
[11] = test system: ACHN renal
[12] = test system: MDA-MB-231 breast

Structure (SMILES) | TGI [1] [µM] | TGI [2] [µM] | TGI [3] [µM] | TGI [4] [µM] | TGI [5] [µM] | TGI [6] [µM] | TGI [7] [µM] | TGI [8] [µM] | TGI [9] [µM] | TGI [10] [µM] | TGI [11] [µM] | GI50 [1] [µM] | GI50 [2] [µM] | GI50 [4] [µM] | GI50 [5] [µM] | GI50 [6] [µM] | GI50 [7] [µM] | GI50 [12] [µM] | TGI [12] [µM] | GI50 [10] [µM]
O=C(O)C(Cc1cccs1)NC(=O)C(F)(F)F (configuration not stated) | > 100 | > 100 | > 100 | > 100 | > 100 | > 100 | > 100 | > 100 | > 100 | > 100 | – | – | – | – | – | – | – | – | – | –
CC(N)Cc1cccc(C(F)(F)F)c1 (configuration not stated) | > 100 | > 100 | > 100 | – | > 100 | > 100 | > 100 | > 100 | > 100 | > 100 | > 100 | – | – | – | – | – | – | – | – | –
COC(=O)c1cccc(NC(=O)Nc2ccc3oc(=O)c4ccccc4c3c2)c1 | > 100 | > 100 | – | > 100 | > 100 | > 100 | > 100 | – | – | > 100 | – | > 100 | > 100 | 36.2 | 24.5 | 3.5 | > 100 | 3.89 | > 100 | > 100
CN(C)CCOc1cc2c(c3ccccc13)-c1ccccc1C2=O | 22 | 3.17 | 5.69 | 3.92 | 4.27 | 3.24 | 4.7 | 8.39 | 6.58 | 3.87 | – | – | – | – | – | – | – | – | – | –
CCSC(=Nc1ccccc1)SC | > 100 | > 100 | > 100 | > 100 | > 100 | > 100 | > 100 | > 100 | > 100 | > 100 | > 100 | – | – | – | – | – | – | – | – | –
CCCCOC(=O)CN1C(=O)c2ccccc2C1=O | > 100 | > 100 | > 100 | > 100 | – | > 100 | – | > 100 | > 100 | > 100 | > 100 | – | – | – | – | – | – | – | – | –
C#CCCCC(=C)C[C@H](OCc1ccccc1)[C@H]1OC(=O)[C@@H]1C | > 100 | > 100 | > 100 | – | 83.7 | > 100 | – | > 100 | > 100 | > 100 | > 100 | – | – | – | – | – | – | – | 63.3 | –
O=C(CCl)N1CCCCC1C1(c2cc3ccccc3[nH]2)OCCO1 (configuration not stated) | 23.3 | 13.1 | 16.3 | 15.8 | 13.7 | 15.4 | 15.9 | 31.5 | 12.7 | 58.9 | 13.9 | – | – | – | – | – | – | – | 12.8 | –
COc1cc(CC2CCc3nc(N)nc(N)c3C2)cc(OC)c1OC (configuration not stated) | > 100 | > 63.1 | > 66.1 | > 100 | > 68.4 | 13.4 | > 100 | > 100 | > 100 | > 100 | > 45.6 | – | – | – | – | – | – | – | > 100 | –
CO/C(=N/N1CC1C(F)(F)F)c1ccncc1 (configuration not stated) | – | – | > 100 | > 100 | > 100 | – | > 100 | > 100 | > 100 | – | – | – | – | – | – | – | – | – | > 100 | –
NC(=O)/N=C(\N)NC(=O)c1ccccc1 | > 100 | > 100 | > 100 | > 100 | – | – | > 100 | > 100 | > 100 | > 100 | > 100 | – | – | – | – | – | – | – | > 100 | –
N#CN=Nc1cc(Cl)c(N=NC#N)cc1Cl | > 100 | > 100 | > 100 | > 100 | – | > 100 | > 100 | > 100 | > 100 | > 100 | > 100 | – | – | – | – | – | – | – | – | –
